{"source": "patent US10301255B2", "about": "“Hepatitis B antiviral agents” (Enanta Pharmaceuticals, Inc., priority 2015, dated 2019)", "note": "pEC50: −log10 of the molar value."}
{"system": "HBV", "assay": "HepAD38 antiviral assay: reduction of viral product accumulation (virion DNA by qPCR; HBsAg/HBeAg ELISA)", "assay_type": "cell-based", "conditions": "Hepatitis B virus, 120 h; HepAD38 cells, tetracycline removed; harvest five days after compound addition; 50% reduction of viral product vs no drug controls", "method": "(§1) Methods: HepAD38 cells are maintained as previously reported (Ladner et at, Antimicrob. Agents Chemother. 1997, […], 1715). Briefly, cells are passaged upon attaining confluency in DMEM/F12 media in the presence of 10% FBS, Penn/Strep, 250 μg/mL G418, and 1 ug/ml tetracycline. Novel compounds are screened by first washing cells three times with PBS to remove tetracycline, and plating in 96 well plates at 35,000 cells/well. Compounds dissolved in DMSO are then diluted 1:200 into wells containing cells. Five days after compound addition, material is harvested for analysis. For an extended 8 day analysis, cells are plated and treated as described above, but media and compound are refreshed on d2 and d5 post initial treatment.\nOn harvest day, virion DNA is obtained by lysing with Sidestep Lysis and Stabilization Buffer and then quantified via quantitative real time PCR. Commercially available ELISA kits are used to quantitate the viral proteins HBsAg (Alpco) or HbeAg (US Biological) by following the manufacturer's recommended protocol after diluting samples to match the linear range of their respective assays. Irrespective of readout, compound concentrations that reduce viral product accumulation in the cell lysates or supernatants by 50% relative to no drug controls (EC50) are reported; EC50 ranges are as follows: A<1 μM; […]."}
{"compound": "O=C(Nc1cc(F)c(F)c(F)c1)c1ccc(Cl)c(C(F)(F)CCCO)c1", "note": "[Compound 1]", "pEC50": "> 6.00"}
{"compound": "COC(=O)OCCCC(F)(F)c1cc(C(=O)Nc2cc(F)c(F)c(F)c2)ccc1Cl", "note": "[Compound 2]", "pEC50": "5.00 to 6.00"}
{"compound": "O=C(Nc1cc(F)c(F)c(F)c1)c1ccc(Cl)c(C(F)(F)CCCF)c1", "note": "[Compound 3]", "pEC50": "> 6.00"}
{"compound": "N#Cc1cc(NC(=O)c2ccc(Cl)c(C(F)(F)CCCO)c2)ccc1Cl", "note": "[Compound 4]", "pEC50": "< 5.00"}
{"compound": "COc1ccc(NC(=O)c2ccc(Cl)c(C(F)(F)CCCO)c2)cc1C#N", "note": "[Compound 5]", "pEC50": "< 5.00"}
{"compound": "COc1ccc(NC(=O)c2ccc(Cl)c(C(F)(F)CCCO)c2)cc1C1CC1", "note": "[Compound 6]", "pEC50": "5.00 to 6.00"}
{"compound": "CCNC(=O)OCCCC(F)(F)c1cc(C(=O)Nc2ccc(Cl)c(C#N)c2)ccc1Cl", "note": "[Compound 7]", "pEC50": "< 5.00"}
{"compound": "N#Cc1cc(NC(=O)c2ccc(Cl)c(C(F)(F)CCCOC(=O)NCc3ccccc3)c2)ccc1Cl", "note": "[Compound 8]", "pEC50": "< 5.00"}
{"compound": "N#Cc1cc(NC(=O)c2ccc(Cl)c(C(F)(F)CCCOC(=O)Nc3ccccc3)c2)ccc1Cl", "note": "[Compound 9]", "pEC50": "< 5.00"}
{"compound": "CC(C)(C)NC(=O)OCCCC(F)(F)c1cc(C(=O)Nc2ccc(Cl)c(C#N)c2)ccc1Cl", "note": "[Compound 10]", "pEC50": "< 5.00"}
{"compound": "O=C(Nc1ccc(C(F)(F)F)c(C2CC2)c1)c1ccc(Cl)c(C(F)(F)CCCO)c1", "note": "[Compound 11]", "pEC50": "< 5.00"}
{"compound": "O=C(Nc1ccc(C2CC2)c(Cl)c1)c1ccc(Cl)c(C(F)(F)CCCO)c1", "note": "[Compound 12]", "pEC50": "< 5.00"}
{"compound": "N#Cc1ccc(NC(=O)c2ccc(Cl)c(C(F)(F)CCCO)c2)cc1F", "note": "[Compound 13]", "pEC50": "< 5.00"}
{"compound": "N#Cc1ccc(NC(=O)c2ccc(Cl)c(C(F)(F)CCCO)c2)cc1Cl", "note": "[Compound 14]", "pEC50": "< 5.00"}
{"compound": "O=C(Nc1ccc(F)c(C2CC2)c1)c1ccc(Cl)c(C(F)(F)CCCO)c1", "note": "[Compound 15]", "pEC50": "< 5.00"}
{"compound": "O=C(Nc1ccc(F)c(C(F)(F)F)c1)c1ccc(Cl)c(C(F)(F)CCCO)c1", "note": "[Compound 16]", "pEC50": "< 5.00"}
{"compound": "O=C(Nc1ccc(F)c(Cl)c1)c1ccc(Cl)c(C(F)(F)CCCO)c1", "note": "[Compound 17]", "pEC50": "< 5.00"}
{"compound": "O=C(Nc1ccc(C(F)(F)F)c(Cl)c1)c1ccc(Cl)c(C(F)(F)CCCO)c1", "note": "[Compound 18]", "pEC50": "< 5.00"}
{"compound": "N#Cc1ccc(NC(=O)c2ccc(Cl)c(C(F)(F)CCCO)c2)cc1C(F)(F)F", "note": "[Compound 19]", "pEC50": "< 5.00"}
{"compound": "OCCCC(F)(F)c1cc(-c2nc(-c3ccc(F)c(Br)c3)c[nH]2)ccc1Cl", "note": "[Compound 20]", "pEC50": "< 5.00"}
{"compound": "CC(F)(CCCO)c1cc(C(=O)Nc2cc(F)c(F)c(F)c2)ccc1Cl", "note": "(stereo not drawn) [Compound 21]", "pEC50": "< 5.00"}
{"compound": "O=C(Nc1cc(F)c(F)c(F)c1)c1ccc(Cl)c(C(O)CCCO)c1", "note": "(stereo not drawn) [Compound 22]", "pEC50": "< 5.00"}
{"compound": "O=C(Nc1cc(F)c(F)c(F)c1)c1ccc(Cl)c(C(F)CCCO)c1", "note": "(stereo not drawn) [Compound 23]", "pEC50": "< 5.00"}
{"system": "not listed separately", "assay": "Compound toxicity by ATPlite 1 Step (total ATP levels)", "assay_type": "cell-based", "conditions": "human; HepAD38 cells, day of harvest; 50% reduction of total ATP vs no drug controls", "method": "as §1\nAdditionally, on day of harvest, compound toxicity is evaluated by treating cells with ATPlite 1 Step according to the manufacturer's protocol. Compound concentrations that reduce total ATP levels in wells by 50% relative to no drug controls (CC50) are reported; CC50 ranges are as follows: […].", "units": {"CC50": "µM"}}
{"compound": "O=C(Nc1cc(F)c(F)c(F)c1)c1ccc(Cl)c(C(F)(F)CCCO)c1", "note": "[Compound 1]", "CC50": "< 10"}
{"compound": "COC(=O)OCCCC(F)(F)c1cc(C(=O)Nc2cc(F)c(F)c(F)c2)ccc1Cl", "note": "[Compound 2]", "CC50": "10 to 30"}
{"compound": "O=C(Nc1cc(F)c(F)c(F)c1)c1ccc(Cl)c(C(F)(F)CCCF)c1", "note": "[Compound 3]", "CC50": "< 10"}
{"compound": "CC(F)(CCCO)c1cc(C(=O)Nc2cc(F)c(F)c(F)c2)ccc1Cl", "note": "(stereo not drawn) [Compound 21]", "CC50": "> 30"}
